The source of these data is patent US10696642B2, “TEAD transcription factor autopalmitoylation inhibitors” (The General Hospital Corporation, priority 2015, dated 2020).

Molecules are shown by their SMILES.

One assay deals with T1, TEAD2 (Homo sapiens, UniProt Q15562).
T1 construct: The cDNA encoding human TEAD2 (residues 217-447, TEAD2^217-447) was cloned into a pET29 vector; made in house; host or cells: E. coli BL21(DE3)-T1R
In words: In vitro palmitoylation assay to measure potency of TEAD palmitoylation inhibitors (Example 11). In kind it is biochemical. As to conditions: compound at 5 μM, 3 μM alkyne palmitoyl-CoA, normalized to DMSO control. Here is the method: Recombinant His6TEAD2 (500 ng) protein was incubated with DMSO control or TEAD inhibitors (MGH-CP1 and its analogues) at 5 μM for 30 min. 3 μM of alkyne palmitoyl-CoA (Cayman Chemical) were then added into the reaction mixture and incubated for 2 h in 50 mM MES, pH 6.4. The reaction was quenched with 1% SDS followed by Click reaction with biotin-azide. Samples were analyzed by SDS-PAGE and streptavidin HRP. Bands intensity obtained from streptavidin blot were quantified using Image J (NIH), and normalized to DMSO control. The percentage of inhibition was determined by comparing to DMSO control and non-palmitoylated TEAD2. To determine the dose-dependency of the inhibitors, various concentrations of the compounds (10 nM to 20 μM) were incubated with TEAD2 protein for 30 min, and then 3 μM of alkyne palmitoyl-CoA (Cayman Chemical) were then added into the reaction mixture and incubated for 2 h in 50 mM MES, pH 6.4. The reaction was then quenched and analyzed similarly as descried above. The level of palmitoylation was then determined by the streptavidin blot, and plotted by Prism to determine the IC50 values.
Compounds (4) to (53) were tested for activity in inhibiting TEAD palmitoylation in the assay of Example 11. The data for the compounds provided in Table 2 as a percentage of inhibition of TEAD2 palmitoylation by the compound at a concentration of 5 μM.

The subject of the next assay is HuH7 cells. Briefly: Colony formation, HuH7. In kind it is cell-based, human. Particulars: tested at 0-20 μM (FIG. 29). On the procedure:
Assays were performed to measure inhibition of cancer cell proliferation in HuH7 cells by compounds (4), (22) and (36), which were each tested at 0-20 μM.

As a reminder, the inhibition is the share of the control response that was lost under treatment. Higher therefore signals a strong effect.

T1 sequence (Q15562 217-447): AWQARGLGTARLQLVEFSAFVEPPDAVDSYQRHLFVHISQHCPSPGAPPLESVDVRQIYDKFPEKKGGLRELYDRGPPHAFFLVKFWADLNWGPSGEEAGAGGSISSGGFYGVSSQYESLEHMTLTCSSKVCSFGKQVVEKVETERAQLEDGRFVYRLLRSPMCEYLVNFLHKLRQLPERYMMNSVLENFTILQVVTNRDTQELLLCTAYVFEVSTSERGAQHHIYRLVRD

At TEAD2, `O=C(CSc1nnc[nH]1)Nc1ccc(C23CC4CC(CC(C4)C2)C3)cc1Br` returned an inhibition at 5 µM of 87%.

In turn, `O=C(CSc1nnc[nH]1)Oc1ccc(C23CC4CC(CC(C4)C2)C3)cc1` returned an inhibition at 5 µM on TEAD2 of 39%.

`O=C(CCSc1nnc(-c2ccc(Cl)cc2Cl)o1)Nc1cccc(C23CC4CC(CC(C4)C2)C3)c1` came in with an inhibition at 5 µM against TEAD2 of 63%.

For the compound `CCOc1ccc2nc(SCCC(=O)Nc3ccc(C45CC6CC(CC(C6)C4)C5)cc3)sc2c1`, the inhibition at 5 µM against TEAD2 is 47%.

Take `O=C(CCCSc1nnc[nH]1)Nc1ccc(C23CC4CC(CC(C4)C2)C3)cc1`: the inhibition at 5 µM against TEAD2 came to 100%.

Turning to `O=C(CSc1nnc[nH]1)Nc1ccc(-c2cccc3ccccc23)cc1`, at TEAD2, the inhibition at 5 µM was determined as 90%.

`O=C(CSc1nnc(-c2ccc(Cl)cc2Cl)o1)Oc1ccc(C23CC4CC(CC(C4)C2)C3)cc1`: testing at 5 µM at TEAD2 gave an inhibition of 56%.

At TEAD2, `O=C(CSc1nnc[nH]1)Nc1ccc(-c2cc(-c3cccnc3)cc(-c3cccnc3)c2)cc1` displayed an inhibition at 5 µM of 95%.

For `O=C(CSc1nnc[nH]1)Nc1ccc(-c2cccc(-c3cccnc3)c2)cc1`, 5 µM produced 100% inhibition at TEAD2.

On to `Cc1ccc(-c2nnc(SCCC(=O)Nc3cccc(C45CC6CC(CC(C6)C4)C5)c3)o2)cc1`, for which the inhibition at 5 µM against TEAD2 was found to be 80%.

The compound `CCn1c(SCC(=O)Nc2ccc(C34CC5CC(CC(C5)C3)C4)cc2)nnc1-c1ccccc1O` showed an inhibition at 5 µM at TEAD2 of 10%.

As to `Cc1cccc(C)c1-c1ccc(NC(=O)CSc2nnc[nH]2)cc1` [Compound 23], the “inhibition of cancer cell proliferation / colony formation in HuH7 cells” value with HuH7 cells is recorded as “effective”.

As for `Cn1cnnc1SCC(=O)Nc1ccc(C23CC4CC(CC(C4)C2)C3)cc1Br`, 5 µM produced 12% inhibition on TEAD2.

For the compound `Nc1nncn1CC(=O)Nc1ccc(C23CC4CC(CC(C4)C2)C3)cc1` [Compound 36], the “inhibition of cancer cell proliferation / colony formation in HuH7 cells” value in the assay with HuH7 cells was “less effective”.

The compound `CC(C)(C)c1ccc(NC(=O)CSc2nnc[nH]2)cc1` had an inhibition at 5 µM against TEAD2 of 30%.

Compound `O=C(CSc1nnc[nH]1)Nc1ccc(-c2ccccc2)cc1Br` returned an inhibition at 5 µM on TEAD2 of 89%.

Consider `CC(C)(C)c1ccc(-c2ccc(NC(=O)CSc3nnc[nH]3)cc2)cc1`, for which testing at 5 µM on TEAD2 gave an inhibition of 100%.

The compound `O=C(CSc1nnc[nH]1)Nc1ccc(-c2cccc(-c3ccncc3)c2)cc1` yielded an inhibition at 5 µM on TEAD2 of 100%.

In the case of `Cn1cnnc1SCC(=O)Nc1ccc(-c2ccccc2)cc1`, on TEAD2, the inhibition at 5 µM came out at 23%.

The compound `O=C(CNc1nnc[nH]1)Nc1ccc(C23CC4CC(CC(C4)C2)C3)cc1` came in with an inhibition at 5 µM on TEAD2 of 45%.

Compound `O=C(CSc1nnc[nH]1)Nc1ccc(-c2cc(-c3ccccc3)cc(-c3ccccc3)c2)cc1` had an inhibition at 5 µM on TEAD2 of 68%.

`Cn1c(SCC(=O)Nc2ccc(C34CC5CC(CC(C5)C3)C4)cc2)nnc1-c1ccccc1` gave an inhibition at 5 µM on TEAD2 of 70%.

On to `O=C(CSc1nnc[nH]1)Nc1ccc(-c2cc(-c3ccccc3)cc(C(F)(F)F)c2)cc1`, for which testing at 5 µM at TEAD2 gave an inhibition of 90%.

On TEAD2, `O=C(CSc1nnc[nH]1)Nc1ccc(-c2cccc(C(F)(F)F)c2)cc1` gave an inhibition at 5 µM of 88%.

As to `COc1ccc(-c2nnc(SCC(=O)Nc3ccc(C45CC6CC(CC(C6)C4)C5)cc3)[nH]2)cc1`, the inhibition at 5 µM at TEAD2 stood at 80%.

As for `Cc1cccc(C)c1-c1ccc(NC(=O)CSc2nnc[nH]2)cc1` [drawing 42], the inhibition at 5 µM at TEAD2 worked out at 100%.

At TEAD2, `Cc1ccc(-c2nnc(SCCCC(=O)Nc3ccc(C45CC6CC(CC(C6)C4)C5)cc3)o2)cc1` yielded an inhibition at 5 µM of 58%.

For `O=C(Nc1ccc(C23CC4CC(CC(C4)C2)C3)cc1)c1cccnc1Nc1cccc(C(F)(F)F)c1`, at TEAD2, the inhibition at 5 µM was less than 10%.

`CC(C)c1ccc(NC(=O)CSc2nnc[nH]2)cc1` yielded an inhibition at 5 µM against TEAD2 of 24%.

On to `Cc1nnc(SCCC(=O)Nc2cccc(C34CC5CC(CC(C5)C3)C4)c2)o1`, for which, at TEAD2, at 5 µM the inhibition was 80%.

Compound `O=C(CSc1nnc[nH]1)Nc1ccc(-c2cc(C(F)(F)F)cc(C(F)(F)F)c2)cc1` showed an inhibition at 5 µM against TEAD2 of 95%.

In turn, `Cn1cnnc1SCC(=O)Nc1ccc(C23CC4CC(CC(C4)C2)C3)cc1` came in with an inhibition at 5 µM on TEAD2 of 10%.

`O=C(CSc1nnc[nH]1)N(c1cccc(C(F)(F)F)c1)c1ccccn1`: at TEAD2, the inhibition at 5 µM was less than 10%.

`O=C(CSc1nnc[nH]1)Nc1ccc(-c2ccc(C3CCCCC3)cc2)cc1` yielded an inhibition at 5 µM on TEAD2 of 93%.

Regarding `Cc1cc(C)cc(-c2ccc(NC(=O)CSc3nnc[nH]3)cc2)c1`, on TEAD2, the inhibition at 5 µM was 100%.

Take `CCOc1ccc2nc(SCC(=O)Nc3ccc(C45CC6CC(CC(C6)C4)C5)cc3)sc2c1`: the inhibition at 5 µM on TEAD2 was found to be 40%.

Take `Nc1nncn1CC(=O)Nc1ccc(C23CC4CC(CC(C4)C2)C3)cc1` [drawing 55]: testing at 5 µM at TEAD2 gave an inhibition of 38%.

`O=C(CCSc1nnc[nH]1)Nc1ccc(C23CC4CC(CC(C4)C2)C3)cc1` came in with an inhibition at 5 µM at TEAD2 of 100%.

As for `Cc1nnc(SCC(=O)Nc2ccc(C34CC5CC(CC(C5)C3)C4)cc2)o1`, the inhibition at 5 µM on TEAD2 was 76%.

`CCCc1ccc(-c2ccc(NC(=O)CSc3nnc[nH]3)cc2)cc1` registered an inhibition at 5 µM against TEAD2 of 97%.

As to `O=C(CS(=O)(=O)c1nnc[nH]1)Nc1ccc(C23CC4CC(CC(C4)C2)C3)cc1`, the inhibition at 5 µM on TEAD2 is less than 10%.

On to `O=C(CSc1nnc[nH]1)Nc1ccc(-c2ccccc2)cc1`, for which the inhibition at 5 µM at TEAD2 stood at 89%.

`Cc1ccc(-c2nnc(SCC(=O)Nc3ccc(C45CC6CC(CC(C6)C4)C5)cc3)o2)cc1` came in with an inhibition at 5 µM on TEAD2 of 53%.

Consider `O=C(CSc1nnc[nH]1)Nc1ccc(C23CC4CC(CC(C4)C2)C3)cc1` [drawing 23], for which the inhibition at 5 µM against TEAD2 was determined as 85%.

Regarding `O=C(CSc1nnc[nH]1)Nc1ccc(-c2ccncc2)cc1`, the inhibition at 5 µM against TEAD2 turned out to be 90%.

Regarding `O=C(CSc1nnc[nH]1)Nc1ccc(-c2cc(-c3ccccc3)nc(-c3ccccc3)c2)cc1`, the inhibition at 5 µM at TEAD2 was found to be 78%.

In turn, `O=C(CSc1nnc[nH]1)Nc1ccc(-c2cc(-c3ccncc3)cc(-c3ccncc3)c2)cc1` yielded an inhibition at 5 µM on TEAD2 of 90%.

As to `CCn1c(CN2CCOCC2)nnc1SCC(=O)Nc1ccc(C23CC4CC(CC(C4)C2)C3)cc1`, the inhibition at 5 µM on TEAD2 was 10%.

As to `O=C(CSc1nncs1)Nc1ccc(C23CC4CC(CC(C4)C2)C3)cc1`, the inhibition at 5 µM against TEAD2 was 68%.

As to `O=C(CSc1nnc[nH]1)Nc1ccc(-c2cc3ccccc3c3ccccc23)cc1`, the inhibition at 5 µM against TEAD2 came to 56%.

`O=C(CSc1nnc[nH]1)Nc1ccc(-c2cccc(-c3ccccc3)c2)cc1` had an inhibition at 5 µM at TEAD2 of 70%.

Take `Cc1cc(-c2ccc(NC(=O)CSc3nnc[nH]3)cc2)cc(C)n1`: the inhibition at 5 µM at TEAD2 was 95%.
